The target in test [1] is T1, Cbl-b (Homo sapiens, UniProt Q13191). Briefly: Cbl-b activity assay (Cbl-b inhibition assay), TR-FRET of Cbl-b interaction with UbcH5B-Ub. In kind it is biochemical. The essentials:
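UbcH5B (C85K) conjugated to N-terminally Bodipy-Fluorescein-labeled ubiquitin served as the fluorescent partner. After compound preincubation, Src kinase (60 nM) with 1 mM ATP and 5 mM MgCl2 (final) was added for 1.5 h, followed by a further 1 h incubation. Some values were obtained with 50 mM NaCl and 30 nM Src.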
(In general: TR-FRET usually uses a lanthanide donor and a delayed reading to cut background.)

For test [2], the target named is T1, Cbl-b. Nature of the test: Cbl-b inhibition assay (Cbl-b activity assay, FRET, Biological Example 1; 100 mM NaCl, 60 nM Src kinase). The following applies: upper bound stated in text lists; read-out: IC50 values in the Cbl-b inhibition assay of Biological Example 1. In kind it is biochemical. In a few lines: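 TR-FRET assay using N-terminal biotinylated Avi-tagged Cbl-b bound to streptavidin-terbium, Src kinase for Cbl-b phosphorylation, and UbcH5B irreversibly conjugated to Bodipy-Fluorescein-ubiquitin. Phosphorylated Cbl-b binds UbcH5B-Ub, bringing the fluorophores together; inhibition is read as loss of FRET signal.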

The next test has as its target Cbl-b (residues 36-427) (Homo sapiens, UniProt Q13191). Briefly: Cbl-b binding assay (SPR, Biacore T200). The following applies: 20° C., 1:1 binding model. In a few lines:
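Steps: capture protein on NeutrAvidin surface; inject compound dilutions (8 or 10 points from 100 or 50 μM) 50 s; allow 90-180 s dissociation; regenerate 20 s with 0.3 M NaCl. Runs at 20° C in HEPES pH 7.5/100 mM NaCl/2% DMSO; 1:1 fitting.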

Another test concerns T-cell. Briefly: CD25 cell surface staining on T-cells co-stimulated with anti-CD3 and anti-CD28 antibody (Biological Example 2). The format is cell-based, human. To be noted: Homo sapiens, T-cell, fold change over baseline, primary human total T-cells, read-out: CD25 staining Anti-CD3/Anti-CD28 stimulation; for fold induction at 0.3 µM: 0.3 μM Cbl-b inhibitor; for fold induction at 1 µM: 1 μM Cbl-b inhibitor; for fold induction at 4 µM: 4 μM Cbl-b inhibitor. In a few lines: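 T-cells were stimulated with anti-CD3 antibody alone or with anti-CD28 antibody, in the presence or absence of Cbl-b inhibitor. IL-2 secretion or CD25 surface staining was measured, and values expressed as fold over the uninhibited baseline […].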

Setting [3] is: assay buffer with 100 mM NaCl, 60 nM Src kinase, read-out: Cbl-b activity IC50.

T1 sequence (Q13191 36-427): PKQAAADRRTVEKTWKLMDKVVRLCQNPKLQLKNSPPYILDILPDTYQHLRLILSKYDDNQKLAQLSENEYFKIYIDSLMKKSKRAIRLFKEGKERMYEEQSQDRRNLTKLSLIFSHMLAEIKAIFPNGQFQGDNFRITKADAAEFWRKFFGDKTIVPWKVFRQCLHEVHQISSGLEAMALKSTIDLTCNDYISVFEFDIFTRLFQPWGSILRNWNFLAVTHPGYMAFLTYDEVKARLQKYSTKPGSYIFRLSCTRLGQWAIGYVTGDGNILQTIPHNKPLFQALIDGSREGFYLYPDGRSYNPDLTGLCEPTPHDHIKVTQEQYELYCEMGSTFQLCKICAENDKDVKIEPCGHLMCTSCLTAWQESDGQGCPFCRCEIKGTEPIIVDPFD
Chain of Cbl-b (residues 36-427) (Q13191 36-427): as above

With `Cc1cc(C)nc(C(=O)Nc2cccc([C@H](C)Sc3nncn3C)c2)c1` [Compound 56, (S)-4,6-dimethyl-N-(3-(1-((4-methyl-4H-1,2,4-triazol-3-yl)thio)ethyl)phenyl)picolinamide], the IC50 at Cbl-b [1] (setting [3]) lay in the range of 0.301 to 1 µM. Moreover, the IC50 at Cbl-b [2] was no more than 1000 nM. This molecule gave a Kd at Cbl-b (residues 36-427) of 1000 to 3000 nM. In the test with T-cell, the fold induction at 0.3 µM lay within 1.01 to 1.3, the fold induction at 1 µM was 1.01 to 1.3 and the fold induction at 4 µM was in the range of 1.01 to 1.3.
Take `Cc1ccc(C(=O)Nc2cccc([C@H](C)Sc3nncn3C)c2)nc1C(F)(F)F` [Compound 61, (S)-5-methyl-N-(3-(1-((4-methyl-4H-1,2,4-triazol-3-yl)thio)ethyl)phenyl)-6-(trifluoromethyl)picolinamide]: the IC50 on Cbl-b [1] (setting [3]) fell in the range of 0.1 to 0.3 µM. The IC50 at Cbl-b [2] is no more than 500 nM. The same molecule yielded a Kd at Cbl-b (residues 36-427) of 100 to 300 nM. In the test on T-cell, the fold induction at 0.3 µM is less than 1, the fold induction at 1 µM lay within 1.01 to 1.3 and the fold induction at 4 µM lay in the range of 1.01 to 1.3.
Regarding `COc1nc(C(=O)Nc2cccc([C@H](C)Sc3nncn3C)c2)cc2ccccc12` [Compound 62, (S)-1-methoxy-N-(3-(1-((4-methyl-4H-1,2,4-triazol-3-yl)thio)ethyl)phenyl)isoquinoline-3-carboxamide], on Cbl-b [1] (setting [3]), the IC50 lay within 0.1 to 0.3 µM. Besides, the IC50 at Cbl-b [2] is no more than 500 nM. On Cbl-b (residues 36-427), this molecule had a Kd of 301 to 1000 nM. In the test with T-cell, the fold induction at 0.3 µM was less than 1, the fold induction at 1 µM is 1.01 to 1.3 and the fold induction at 4 µM is 1.01 to 1.3.
Take `C[C@H](Sc1nncn1C)c1cccc(NC(=O)c2cc(C(F)(F)F)cc(C(F)(F)F)n2)c1` [Compound 64, (S)-N-(3-(1-((4-methyl-4H-1,2,4-triazol-3-yl)thio)ethyl)phenyl)-4,6-bis(trifluoromethyl)picolinamide]: the IC50 on Cbl-b [1] (setting [3]) lay within 0.301 to 1 µM. Moreover, the IC50 at Cbl-b [2] is no more than 1000 nM. On Cbl-b (residues 36-427), this molecule yielded a Kd of 1000 to 3000 nM. In addition, in the test on T-cell, the fold induction at 0.3 µM was less than 1, the fold induction at 1 µM was less than 1 and the fold induction at 4 µM fell in the range of 1.01 to 1.3.
As to `C[C@H](Sc1nncn1C)c1cccc(NC(=O)c2cc(Cl)cc(C(F)(F)F)n2)c1` [Compound 68, (S)-4-chloro-N-(3-(1-((4-methyl-4H-1,2,4-triazol-3-yl)thio)ethyl)phenyl)-6-(trifluoromethyl)picolinamide], the IC50 on Cbl-b [1] (setting [3]) lay in the range of 0.1 to 0.3 µM. The IC50 on Cbl-b [2] was no more than 500 nM. In addition, at Cbl-b (residues 36-427), the Kd is 301 to 1000 nM. In the test with T-cell, the fold induction at 0.3 µM was in the range of 1.01 to 1.3, the fold induction at 1 µM is 1.01 to 1.3 and the fold induction at 4 µM lay in the range of 1.01 to 1.3.
With `C[C@H](Sc1nncn1C)c1cccc(NC(=O)c2cc(C(F)(F)F)cc(C3CC3)n2)c1` [Compound 69, (S)-6-cyclopropyl-N-(3-(1-((4-methyl-4H-1,2,4-triazol-3-yl)thio)ethyl)phenyl)-4-(trifluoromethyl)picolinamide], the IC50 on Cbl-b [1] (setting [3]) was in the range of 0.301 to 1 µM. The IC50 at Cbl-b [2] was no more than 500 nM. At Cbl-b (residues 36-427), the Kd lay within 3000 to 10000 nM. In addition, in the test on T-cell, the fold induction at 0.3 µM was in the range of 1.01 to 1.3, the fold induction at 1 µM lay within 1.01 to 1.3 and the fold induction at 4 µM was 1.31 to 1.5.
`Cc1ncc(C(=O)Nc2cccc([C@H](C)Sc3nncn3C)c2)nc1C1CC1` [Compound 70, (S)-6-cyclopropyl-5-methyl-N-(3-(1-((4-methyl-4H-1,2,4-triazol-3-yl)thio)ethyl)phenyl)pyrazine-2-carboxamide]: the IC50 on Cbl-b [1] (setting [3]) was in the range of 0.1 to 0.3 µM. Also, the IC50 at Cbl-b [2] is no more than 500 nM. Also, the Kd on Cbl-b (residues 36-427) fell in the range of 301 to 1000 nM. Also, in the test on T-cell, the fold induction at 0.3 µM was in the range of 1.31 to 1.5, the fold induction at 1 µM lay in the range of 1.31 to 1.5 and the fold induction at 4 µM was 1.51 to 1.75.
Regarding `COc1cc(C(=O)Nc2cccc([C@H](C)Sc3nncn3C)c2)nc(C(F)(F)F)c1` [Compound 71, (S)-4-methoxy-N-(3-(1-((4-methyl-4H-1,2,4-triazol-3-yl)thio)ethyl)phenyl)-6-(trifluoromethyl)picolinamide], the IC50 on Cbl-b [1] (setting [3]) lay in the range of 0.1 to 0.3 µM. The IC50 on Cbl-b [2] was no more than 500 nM. For the same molecule, on Cbl-b (residues 36-427), the Kd fell in the range of 100 to 300 nM. Also, in the test with T-cell, the fold induction at 0.3 µM fell in the range of 1.01 to 1.3, the fold induction at 1 µM lay in the range of 1.51 to 1.75 and the fold induction at 4 µM was greater than 1.76.
For `C[C@H](Sc1nncn1C)c1cccc(NC(=O)c2ccnc(C(F)(F)F)n2)c1` [Compound 75, N-[3-[(1S)-1-[(4-methyl-1,2,4-triazol-3-yl)sulfanyl]ethyl]phenyl]-2-(trifluoromethyl)pyrimidine-4-carboxamide], on Cbl-b [1] (setting [3]), the IC50 fell in the range of 0.301 to 1 µM. At Cbl-b [2], the IC50 was no more than 500 nM. The molecule also had a Kd on Cbl-b (residues 36-427) of 301 to 1000 nM. Further, in the test with T-cell, the fold induction at 0.3 µM was in the range of 1.01 to 1.3, the fold induction at 1 µM fell in the range of 1.01 to 1.3 and the fold induction at 4 µM was in the range of 1.01 to 1.3.
Consider `C[C@H](Sc1nncn1C)c1cccc(NC(=O)c2cncc(C(F)(F)F)n2)c1` [Compound 77, N-[3-[(1S)-1-[(4-methyl-1,2,4-triazol-3-yl)sulfanyl]ethyl]phenyl]-6-(trifluoromethyl)pyrazine-2-carboxamide], for which the IC50 at Cbl-b [1] (setting [3]) lay in the range of 0.301 to 1 µM. For the same molecule, the IC50 at Cbl-b [2] is no more than 500 nM. This molecule came in with a Kd on Cbl-b (residues 36-427) of 1000 to 3000 nM. In the test with T-cell, the fold induction at 0.3 µM is less than 1, the fold induction at 1 µM was in the range of 1.01 to 1.3 and the fold induction at 4 µM lay within 1.01 to 1.3.
For the molecule `C[C@H](Sc1nncn1C)c1cccc(NC(=O)c2cc3c(Cl)cccc3[nH]2)c1` [Compound 78, 4-chloro-A-[3-[(LS)-1-[(4-methyl-1,2,4-triazol-3-yl)sulfanyl]ethyl]phenyl]-1H-indole-2-carboxamide], on Cbl-b [1] (setting [3]), the IC50 is 0.1 to 0.3 µM. In addition, the IC50 on Cbl-b [2] was no more than 500 nM. This molecule also yielded a Kd at Cbl-b (residues 36-427) of 100 to 300 nM. For the same molecule, in the test with T-cell, the fold induction at 0.3 µM is less than 1, the fold induction at 1 µM lay within 1.01 to 1.3 and the fold induction at 4 µM fell in the range of 1.01 to 1.3.
As to `C[C@H](Sc1nncn1C)c1cccc(NC(=O)c2cccc(S(C)(=O)=O)n2)c1` [Compound 80, (S)-N-(3-(1-((4-methyl-4H-1,2,4-triazol-3-yl)thio)ethyl)phenyl)-6-(methylsulfonyl)picolinamide], the IC50 on Cbl-b [1] (setting [3]) was 1 to 3 µM. Besides, the IC50 on Cbl-b [2] is no more than 10000 nM. Further, on Cbl-b (residues 36-427), the Kd is 3000 to 10000 nM. In addition, in the test with T-cell, the fold induction at 0.3 µM lay within 1.01 to 1.3, the fold induction at 1 µM was 1.01 to 1.3 and the fold induction at 4 µM lay within 1.01 to 1.3.
Consider `C[C@H](Sc1nncn1C)c1cccc(NC(=O)c2cccc(C(C)(F)F)n2)c1` [Compound 81, (S)-6-(1,1-difluoroethyl)-N-(3-(1-((4-methyl-4H-1,2,4-triazol-3-yl)thio)ethyl)phenyl)picolinamide], for which, at Cbl-b [1] (setting [3]), the IC50 was in the range of 0.1 to 0.3 µM. Also, on Cbl-b [2], the IC50 was no more than 500 nM. This molecule also came in with a Kd on Cbl-b (residues 36-427) of 301 to 1000 nM. Further, in the test with T-cell, the fold induction at 0.3 µM fell in the range of 1.01 to 1.3, the fold induction at 1 µM fell in the range of 1.51 to 1.75 and the fold induction at 4 µM is greater than 1.76.
`C[C@H](Sc1nncn1C)c1cccc(NC(=O)c2cc(C(C)(C)O)cc(C(F)(F)F)n2)c1` [Compound 85, 4-(1-hydroxy-1-methyl-ethyl)-N-[3-[(1S)-1-[(4-methyl-1,2,4-triazol-3-yl)sulfanyl]ethyl]phenyl]-6-(trifluoromethyl)pyridine-2-carboxamide]: at Cbl-b [1] (setting [3]), the IC50 is 0.1 to 0.3 µM. In addition, the IC50 at Cbl-b [2] was no more than 500 nM. The molecule further came in with a Kd on Cbl-b (residues 36-427) of 301 to 1000 nM. Besides, in the test with T-cell, the fold induction at 0.3 µM lay in the range of 1.01 to 1.3, the fold induction at 1 µM fell in the range of 1.01 to 1.3 and the fold induction at 4 µM is 1.01 to 1.3.
In the case of `C[C@H](Sc1nncn1C)c1ccc(F)c(NC(=O)c2cccc(C(F)(F)F)n2)c1` [Compound 95a, (S)-N-(2-fluoro-5-(1-((4-methyl-4H-1,2,4-triazol-3-yl)thio)ethyl)phenyl)-6-(trifluoromethyl)picolinamide], the IC50 at Cbl-b [1] (setting [3]) fell in the range of 0.301 to 1 µM. The IC50 on Cbl-b [2] is no more than 500 nM. Besides, the Kd on Cbl-b (residues 36-427) was in the range of 1000 to 3000 nM. In the test on T-cell, the fold induction at 0.3 µM was less than 1, the fold induction at 1 µM was 1.01 to 1.3 and the fold induction at 4 µM is 1.01 to 1.3.
Regarding `C[C@H](Sc1nnc[nH]1)c1cccc(NC(=O)c2cc3ccccc3cn2)c1` [Compound 98, (S)-N-(3-(1-((4H-1,2,4-triazol-3-yl)thio)ethyl)phenyl)isoquinoline-3-carboxamide], the IC50 on Cbl-b [1] (* assay buffer containing 50 mM NaCl instead of 100 mM NaCl and 30 nM Src kinase instead of 60 nM, read-out: Cbl-b activity IC50 (μM)*) lay within 1 to 3 µM. Besides, the IC50 at Cbl-b [1] (setting [3]) was 0.301 to 1 µM. Besides, the IC50 at Cbl-b [2] was no more than 1000 nM. The same molecule had a Kd at Cbl-b (residues 36-427) of 3000 to 10000 nM. Also, in the test with T-cell, the fold induction at 0.3 µM is less than 1, the fold induction at 1 µM was less than 1 and the fold induction at 4 µM is less than 1.

As a reminder, the IC50 is the concentration that inhibits the measured activity by half. What is called Kd is the concentration at which binding is half-saturated.
